Data on 5 molecules can be found in patent US11672868B2, “Bicyclic peptide ligands specific for MT1-MMP” (priority 2014, dated 2023).

Like-named read-outs stand apart in the source and are kept apart here. Marks after values point to notes of the source that are not given here. Numbered stars: 1 amine (or outer) side, 2 acyl side, 3 side chain; on linkers, the order of the positions; unused ones are H or OH. Bridge positions count the residues as written; N and C are the ends. Square brackets hold non-standard residues; d marks the D form. Peptide text beside a SMILES is read from it. I, II: the chains in the order shown. * marks the point of attachment. X3 = COc1cc2cc(c1Cl)N(C)C(=O)C[C@H](OC(=O)[C@H](C)N(C)C(=O)CCSSCCCC(=O)*)[C@]1(C)O[C@H]1[C@H](C)[C@@H]1C[C@@](O)(NC(=O)O1)[C@H](OC)/C=C/C=C(\C)C2; Dolaproine = CO[C@@H]([C@@H]1CCCN1)[C@@H](C)C(=O)O; Dil = CC[C@H](C)[C@H](NC)[C@@H](CC(=O)O)OC; Phe(4-Br) = N[C@@H](Cc1ccc(Br)cc1)C(=O)O; 1Nal = N[C@@H](Cc1cccc2ccccc12)C(=O)O; TBMB = c1c(C[*:1])cc(C[*:3])cc1C[*:2]; PABC = O=C(OCc1ccc(N[*:1])cc1)[*:2]; Glutaryl = O=C(CCCC(=O)[*:2])[*:1]; X4 = C[C@@H](N*)[C@@H](O)c1ccccc1; Cit = NC(=O)NCCC[C@H](N)C(=O)O; Tle = CC(C)(C)[C@H](N)C(=O)O; NMeV = CN[C@H](C(=O)O)C(C)C; Sar = CNCC(=O)O Some results are limits rather than exact numbers.

The nature of data set [1]: Plasma stability, quantitative LC-MS (Method #2). It is filed as in vitro ADME, mouse. Particulars: ex vivo mouse plasma at 37° C., Method #2 (FIG. 1, FIG. 3A); read-out: half-life of the peptide in mouse plasma (converted). The procedure:
To obtain plasma stability of bicyclic peptides quantitatively, peptide stock solutions (200 μM in DMSO) were mixed with plasma (human or mouse), such that final concentrations were 10 μM. 40 μL samples were taken periodically up to 8 hrs and frozen at −80° C. Prior to LC-MS analysis, samples were defrosted, and mixed with 3 volumes (here, 120 μL) of 1:1 acetonitrile/MeOH water. The milky suspensions were centrifuged for 30 min at 13000 rpm, and peptide-containing supernatants were quantitated for doubly/triply charged species and MS/MS fragments thereof using a Waters Xevo TQ-D instrument, while using a plasma extracted standard curve of the same peptides as a reference. The half-life of degradation in plasma was used to assess the comparative stability of the molecules.

Data set [2] can be described thus: Plasma stability, quantitative LC-MS (Method #2). It is filed as in vitro ADME, human. The following applies: human, human plasma, 37° C.; sentence prints mouse plasma; read-out: half-life of the peptide in plasma (FIG. 3B, human plasma stability) (converted). As to the method: […] […] Prior to LC-MS analysis, samples were defrosted, and mixed with 3 volumes (here, 120 μL) of 1:1 acetonitrile/MeOH water. The milky suspensions were centrifuged for 30 min at 13000 rpm, and peptide-containing supernatants were quantitated for doubly/triply charged species and MS/MS fragments thereof using a Waters Xevo TQ-D instrument, while using a plasma extracted standard curve of the same peptides as a reference. The half-life of degradation in plasma was used to assess the comparative stability of the molecules.

A short description of data set [3]: Mouse pharmacokinetics, single intravenous dose. It is filed as in vivo. Particulars: male CD1 mice, single intravenous 5.925 mg/kg, mean. The procedure:
Mouse pharmacokinetics were acquired using bicyclic peptide 17-69-04-N004, which was dosed to one group of 12 male CD1 mice as a single intravenous, 5.925 mg/kg doses as a 5 mL/kg bolus of a 1.19 mg/mL solution. […] Blood samples were taken from two animals per time-point, via cardiac puncture under terminal anaesthesia, at 0.08, 0.5, 1, 2 and 4 hours post-dose, and transferred to EDTA tubes for plasma generation. Plasma samples were immediately frozen at −20 C. For analysis, samples were thawed rapidly and 50 μL aliquots were treated with 3 volumes of extraction solvent (2:9:9 mixture of 10 mM ammonium bicarbonate, pH 8, acetonitrile and methanol, containing an analytical internal standard). Precipitated proteins were removed by centrifugation and the supernatant was analysed by LC-MS/MS. Quantification of the samples was by reference to a calibration line prepared in control mouse plasma. Pharmacokinetic parameters were determined by non-compartmental analysis using the software package PK Solutions 2.0 from Summit Research Services.
Cmax: Maximum measured concentration;
Tmax: Time at which maximum concentration was measured;
AUC 0-t: Area under the plasma drug concentration/time curve from 0 minutes to last quantifiable data point; and
AUC 0-∞: Area under the plasma drug concentration/time curve from 0 minutes extrapolated beyond the final data point based on the terminal half-life.

Data set [4] deals with HT-1080 xenograft tumours. The data set is described as follows: Efficacy in HT-1080 xenograft mice. It is filed as in vivo, mouse. Particulars: HT1080 xenograft. The procedure:
Balb/c nude mice bearing subcutaneous HT-1080 xenograft tumours were treated with BDCs or vehicle (PBS). BDCs were dosed 3 times weekly for 2 weeks, dosing initiated when tumours measured approx. 150-200 mm^3. Mice were monitored, and measurements of tumour volume and body weight recorded 3 times a week.

The test system of data set [5] is human lung squamous cell carcinoma line EBC-1. The data set is described as follows: Efficacy in EBC-1 xenograft mice. It is filed as in vivo, mouse. Particulars: mouse bearing EBC-1 tumours; ± 95% confidence limit. The procedure:
In vivo efficacy of BT17BDC-17, BT17BDC-18, BT17BDC-19 and BT17BDC-20 All BDCs containing the stabilised bicycle core sequence were tested for their efficacies in in vivo mouse xenograft models, using the human lung squamous cell carcinoma line EBC-1.
The area under the curve (AUC) of tumour volume over time and BDC was taken and plotted against the corresponding dose group (FIG. 13).

As a reminder, the half-life is the time needed for the level to fall by half in the phase considered. In the case of `C[C@H](NC(=O)CN(C)C(=O)CN(C)C(=O)CN(C)C(=O)CN(C)C(=O)CN(C)C(=O)CN(C)C(=O)CN(C)C(=O)CN(C)C(=O)CN(C)C(=O)CN(C)C(=O)CN)C(=O)N[C@H]1CSCc2cc3cc(c2)CSC[C@H](NC(=O)[C@@H](C)NC(=O)[C@H](Cc2cccc4ccccc24)NC(=O)[C@H](CCC(=O)O)NC(=O)[C@H](CC(N)=O)NC(=O)[C@@H](C)NC1=O)C(=O)N[C@@H](CCC(=O)O)C(=O)N[C@@H](CC(=O)O)C(=O)N[C@@H](Cc1ccccc1)C(=O)N[C@@H](Cc1ccc(Br)cc1)C(=O)N[C@@H](CC(=O)O)C(=O)N[C@@H](C(C)(C)C)C(=O)N[C@H](C(N)=O)CSC3` [17-69-07-N244, G-Sar10-A-(17-69-07) D-Ala1 1Nal4 D-Ala5 4BrPhe9 tBuGly11] (H-G[Sar][Sar][Sar][Sar][Sar][Sar][Sar][Sar][Sar][Sar]AC[dA]NE[1Nal][dA]CEDF[Phe(4-Br)]D[Tle]C-NH2; linker 13-19-26 via TBMB; C-terminus assumed), the half-life at 10 μM in data set [1] and in data set [2] was above 20 h each time.
On to `CC[C@H](C)[C@@H]1NC(=O)[C@H](CC(=O)O)NC(=O)[C@H](Cc2ccc(O)cc2)NC(=O)[C@H](Cc2ccccc2)NC(=O)[C@H](CC(=O)O)NC(=O)[C@H](CCC(=O)O)NC(=O)[C@@H]2CSCc3cc(cc(c3)CSC[C@H](NC(C)=O)C(=O)N[C@@H](Cc3ccc(O)cc3)C(=O)N[C@@H](CC(N)=O)C(=O)N[C@@H](CCC(=O)O)C(=O)N[C@@H](Cc3ccccc3)C(=O)NCC(=O)N2)CSC[C@@H](C(N)=O)NC1=O` [17-69-07-N004, Ac-(17-69-07) (wildtype)], for which, in data set [3], the “Clearance based on AUC 0-∞” value stood at 20.7 mL/min/kg and the “Volume of Distribution based on AUC 0-∞” value came out at 0.4 L/kg.
Regarding `C[C@H](NC(=O)CN(C)C(=O)CN(C)C(=O)CN(C)C(=O)CN(C)C(=O)CN(C)C(=O)CN(C)C(=O)CN(C)C(=O)CN(C)C(=O)CN(C)C(=O)CN(C)C(=O)CN)C(=O)N[C@H]1CSCc2cc3cc(c2)CSC[C@H](NC(=O)[C@@H](C)NC(=O)[C@H](Cc2cccc4ccccc24)NC(=O)[C@H](CCC(=O)O)NC(=O)[C@H](CC(N)=O)NC(=O)[C@@H](C)NC1=O)C(=O)N[C@@H](CCC(=O)O)C(=O)N[C@@H](CC(=O)O)C(=O)N[C@@H](Cc1ccccc1)C(=O)N[C@@H](Cc1ccc(O)cc1)C(=O)N[C@@H](CC(=O)O)C(=O)N[C@@H](C(C)(C)C)C(=O)N[C@H](C(N)=O)CSC3` [17-69-07-N231, G-Sar10-A-(17-69-07) D-Ala1 1Nal4 D-Ala5 tBuGly11] (H-G[Sar][Sar][Sar][Sar][Sar][Sar][Sar][Sar][Sar][Sar]AC[dA]NE[1Nal][dA]CEDFYD[Tle]C-NH2; linker 13-19-26 via TBMB; C-terminus assumed), the half-life at 10 μM in data set [1] and in data set [2] was above 20 h each time.
As for `CC[C@H](C)[C@@H]1NC(=O)[C@H](CC(=O)O)NC(=O)[C@H](Cc2ccc(O)cc2)NC(=O)[C@H](Cc2ccccc2)NC(=O)[C@H](CC(=O)O)NC(=O)[C@H](CCC(=O)O)NC(=O)[C@@H]2CSCc3cc(cc(c3)CSC[C@H](NC(=O)[C@H](C)NC(=O)CN(C)C(=O)CN(C)C(=O)CN(C)C(=O)CN(C)C(=O)CN(C)C(=O)CN(C)C(=O)CN(C)C(=O)CN(C)C(=O)CN(C)C(=O)CN(C)C(=O)CNC(=O)CCCSSCCC(=O)N(C)[C@@H](C)C(=O)O[C@H]3CC(=O)N(C)c4cc(cc(OC)c4Cl)C/C(C)=C/C=C/[C@@H](OC)[C@@]4(O)C[C@H](OC(=O)N4)[C@@H](C)[C@@H]4O[C@@]34C)C(=O)N[C@@H](Cc3ccc(O)cc3)C(=O)N[C@@H](CC(N)=O)C(=O)N[C@@H](CCC(=O)O)C(=O)N[C@@H](Cc3ccccc3)C(=O)NCC(=O)N2)CSC[C@@H](C(N)=O)NC1=O` [BT17BDC-9] (X3-G[Sar][Sar][Sar][Sar][Sar][Sar][Sar][Sar][Sar][Sar]ACYNEFGCEDFYDIC-NH2; linker 13-19-26 via TBMB), in data set [4], the “weight of the animals during treatment” value is listed as “largely stable”. Also, in data set [4] (after 9 days post injection), the “reduction in tumour volume compared to vehicle control” value is reported as “significant reduction in tumour volume”. The “ED50, effective dose to achieve 50% tumour AUC reduction” value in data set [5] is reported as 2.1 ± 1.1^b mg/kg.
Regarding `CC[C@H](C)[C@@H]([C@@H](CC(=O)N1CCC[C@H]1[C@H](OC)[C@@H](C)C(=O)N[C@H](C)[C@@H](O)c1ccccc1)OC)N(C)C(=O)[C@@H](NC(=O)[C@H](C(C)C)N(C)C(=O)OCc1ccc(NC(=O)[C@H](CCCNC(N)=O)NC(=O)[C@@H](NC(=O)CCCC(=O)NCC(=O)N(C)CC(=O)N(C)CC(=O)N(C)CC(=O)N(C)CC(=O)N(C)CC(=O)N(C)CC(=O)N(C)CC(=O)N(C)CC(=O)N(C)CC(=O)N(C)CC(=O)N[C@@H](C)C(=O)N[C@H]2CSCc3cc4cc(c3)CSC[C@H](NC(=O)CNC(=O)[C@H](Cc3ccccc3)NC(=O)[C@H](CCC(=O)O)NC(=O)[C@H](CC(N)=O)NC(=O)[C@H](Cc3ccc(O)cc3)NC2=O)C(=O)N[C@@H](CCC(=O)O)C(=O)N[C@@H](CC(=O)O)C(=O)N[C@@H](Cc2ccccc2)C(=O)N[C@@H](Cc2ccc(O)cc2)C(=O)N[C@@H](CC(=O)O)C(=O)N[C@@H]([C@@H](C)CC)C(=O)N[C@H](C(N)=O)CSC4)C(C)C)cc1)C(C)C` [BT17BDC-1] (I: G[Sar][Sar][Sar][Sar][Sar][Sar][Sar][Sar][Sar][Sar]ACYNEFGCEDFYDIC-NH2 / II: V[Cit][PABC][NMeV]V[Dil][Dolaproine]-X4; linker I:13-I:19-I:26 via TBMB; linker I:N-II:N via Glutaryl), in data set [4], the “weight of the animals during treatment” value was “largely stable”.
